We go through 13 molecules from article PMC12371361 (Frontiers in Immunology, 2025).

The target of one assay is HLA-A*68:01 (Homo sapiens, UniProt P04439, A269V/D185E/E176V/E277Q/E87N/F33Y/G231S/I121M/I166T/I218V/L180W/L300P/L318F/N151K/P208A/P217A/Q86R/R169H/T345S). The assay can be described thus: biochemical. The procedure:
(§1) The affinity of peptide/HLA binding was determined as described before ([21], [22]). Briefly, biotinylated HLA Class I heavy chains were denatured and diluted into refolding buffer containing β-mercaptoethanol and varying concentrations of the test/control peptides. The mixtures were incubated with agitation at room temperature for 20–24 hours to enable peptide/HLA complex formation. The solutions containing the complexes were transferred to streptavidin plates and incubated for 30 minutes. Plates were then developed using ELISA. Absorbance measured at 450 nm was graphed against the varying concentrations of the test peptide used. The affinity of peptide/HLA binding was determined by calculating the EC50, defined as the peptide concentration resulting in half saturation. Peptides with an EC50 under 100 nM were classified as high affinity binders.

Assay [1] has as its system AAV9 capsid-specific CD8 T cells in healthy donor PBMCs. The assay can be described thus: Peptide deconvolution FluoroSpot, CD4-depleted PBMCs expanded with Class I MAPPs pool (IFN-γ). The assay is classed as cell-based, human. The following applies: for T cell response in tested donors / donors with the predicted binding allele (in words) / % response in donors with allele(s): CD4-depleted PBMCs expanded with Class I MAPPs pool; for T cell response in tested donors / donors with the predicted binding allele (in words): IFN-γ FluoroSpot; for Total no. of responders: 24 healthy donors, CD4-depleted PBMCs expanded 10 days with Class I MAPPs pool, matrix pools 1 µg per peptide/mL, then individual peptide 2 µg/mL, ~24 h, positive = SI ≥1.4; for % response in donors with allele(s): responders among cohort donors expressing the peptide's predicted HLA binding allele(s). Here is the method:
For the identification of immunodominant CD8 T cell epitopes, the 41 HLA Class I MAPPs peptides were arranged in a matrix of 13 pools, each containing 6–7 peptides ( Supplementary Table 4 ). Per the matrix, each matrix pool was constructed by combining the peptides listed in each column or each row ([16]). Peptides present at the intersection of responding matrix pools were shortlisted and tested individually. All matrix pools were dissolved in 100% DMSO and tested at 1 µg per peptide/mL. For individual testing, peptides were dissolved in 100% DMSO and tested at 2 µg/mL. Matrix pools and individual peptides were synthesized by GenScript.
Frozen PBMCs were thawed and resuspended in AIM V+ 5% SR at 1X10^6 cells/mL. Cells were stimulated with test peptide pools (1 µg per peptide/mL) and expanded in vitro for 10 days as described previously ([17]). On Days 4 and 7, cells were supplemented with a cytokine cocktail containing IL-2 (R&D Systems, 10 units/mL), IL-7 (R&D Systems, 10 ng/mL), and IL-15 (PeproTech, 10 ng/mL). On Day 10, cells were harvested, washed, and restimulated on precoated IFN-γ FluoroSpot plates (MabTech) in triplicates (125,000 cells/well). Peptide pools (1 µg per peptide/mL) or individual peptides (2 µg/mL, for deconvolution studies) were used for restimulation. Anti-CD3 antibody (MabTech, 100 ng/mL) and DMSO were used as positive and negative controls respectively. Plates were incubated at 37 degrees Celsius for ~ 24 hours and processed as described in the previous section.
For experiments involving T cell depletion, CD4 T cells were depleted via magnetic separation using human CD4 Microbeads (Miltenyi Biotec) and an AutoMACS separator (Miltenyi Biotec) according to manufacturer’s instructions. Depleted cells were washed with MACS buffer prior to seeding on culture plates.
For FluoroSpot assays, results were expressed as Spot Forming Units (SFU), calculated as the spot count per million PBMCs. The Stimulation Index (SI) was calculated as the average SFU in test wells/average SFU in DMSO control wells. For assays with fresh PBMCs, an SI of 2 or higher with a minimum of 50 SFU was counted as a positive IFN-γ/TNF-α response. For assays with expanded PBMCs, an SI of 1.4 or higher was set as the cutoff for a positive IFN-γ response. Predicted HLA binding alleles for each peptide were determined using MHCMotifDecon 1.0 as previously described ([13], [14], [23]). Predicted binding affinities for identified epitopes were determined using NetMHC 4.0 ([24]). Data tables and heatmaps were created using Excel. Data analysis and graphical representations were performed on Graph Pad Prism 10.
To identify the immunodominant CD8 T cell epitopes within the HLA Class I MAPPs peptides, we utilized a system of matrix pools which facilitates rapid mapping of immunodominant epitopes when investigating a large number of peptides. The 41 HLA Class I MAPPs peptides were arranged into 13 matrix pools (MPs), each containing 6–7 peptides ( Supplementary Table 4 ). The matrix arrangement allows each Class I peptide to feature in two MPs, and a restimulation response to both MPs containing a specific peptide identifies putative immunodominant peptides that can be verified on an individual basis. Peptide deconvolution was performed on a cohort of 24 healthy donors. PBMCs were depleted of CD4 T cells and expanded as described before with the Class I MAPPs pool (41 peptides). Expanded PBMCs were restimulated on FluoroSpot assays with the 13 MPs.

The target in another assay is HLA-B*27:05 (Homo sapiens, UniProt P01889, D138H/D201E/E176V/E204Q/G107R/H137Y/K202T/N104T/N87E/Q56L/Q94K/R106L/R155S/R180L/S101D/S121N/S48T/Y140D/Y33H/Y91C). The assay can be described thus: Peptide/HLA binding affinity assay. The following applies: EC50 = peptide concentration at half saturation; HLA heavy chain refolded with varying peptide conc., 20–24 h, room temperature, ELISA 450 nm; <100 nM = high affinity. The source says: Plates were then developed using ELISA.

The next assay has as its target HLA-B*40:01 (Homo sapiens, UniProt P01889, A65T/A93T/A95T/D138N/D98Y/E176V/E69K/N87E/Q56L/Q94N/R180L/S121R/S35A/S48T/T167S/V36M/W171L/Y33H/Y91S). The assay can be described thus: biochemical. The procedure:
as §1

The target of a further assay is HLA-A*02:01 (Homo sapiens, UniProt P04439, D140Y/D185E/D98H/E176V/E277Q/G131W/G231S/I119V/I121R/I166T/I218V/L300P/L318F/N151K/N90K/P208A/P217A/Q86G/Q94H/R138H/R169H/T345S). The assay can be described thus: biochemical. The procedure: as §1
The target in another assay is HLA-C*07:01 (Homo sapiens, UniProt P10321, K90N/S123Y). The assay can be described thus: biochemical. The procedure:
as §1

The next assay concerns the target HLA-A*01:01 (Homo sapiens, UniProt P04439, A114D/A174V/A182V/D101N/D185E/E176A/E190D/L180R/Q94H/R68K/S129P/T187R/V100A/V91M/W191G). The assay can be described thus: biochemical. The procedure: as §1
The target of a further assay is HLA-C*03:03 (Homo sapiens, UniProt P10321, A176E/A330V/A97T/C25G/C350S/D114A/D33Y/E197K/G115R/L119I/L127V/L171W/L218V/M285V/M309V/M331V/P208H/Q277E/Q291P/R243W/R45H/S123Y/S140Y/S297R/S48A/T118I/T187L/T329A/T363A/V319A). The following applies: C*03:03 measured as substitute for C*03:04; EC50 = peptide concentration at half saturation; refolding 20–24 h, room temperature, ELISA 450 nm; <100 nM = high affinity. The procedure: as §1

The next assay addresses HLA-B*35:01 (Homo sapiens, UniProt P01889, A329T/A93T/A95T/C349S/D201E/D98Y/E176V/E187L/E204Q/E69T/I218V/K202T/L119I/Q94N/R155S/R180L/S121R/S35A/S48A/T118I/V127L/V306I/V36M/Y140S/Y91F). Kind of assay: biochemical. The procedure:
as §1

Residues, ends and D or L forms follow the SMILES beside them. Bounds are passed on as bounds.

`CSCC[C@H](NC(=O)[C@H](CC(N)=O)NC(=O)[C@H](CO)NC(=O)[C@@H]1CCCN1C(=O)CNC(=O)[C@H](C)NC(=O)[C@@H](N)C(C)C)C(=O)N[C@@H](C)C(=O)N[C@H](C(=O)O)C(C)C` [Peptide 27] (H-VAGPSNMAV-OH): at HLA-A*68:01 (EC50 = peptide concentration at half saturation, HLA heavy chain refolded with varying peptide conc., 20–24 h, room temperature, ELISA 450 nm, <100 nM = high affinity), the “Binding affinity (nM), A*68:01” value is reported as “Non-binder”.

For the molecule TDSDYQLPYVL [Peptide 13], in [1], the “T cell response in tested donors / donors with the predicted binding allele (in words)” value was “elicited a T cell response”. Also, the Responding donors entry in [1] (peptide deconvolution in 24 healthy donors, '-' = no responding donor, IFN-γ, SI ≥1.4) was “Donor # 442”.

Take `CC(C)C[C@H](N)C(=O)N[C@@H](CCCNC(=N)N)C(=O)N[C@H](C(=O)NCC(=O)N[C@@H](CC(N)=O)C(=O)N[C@@H](CC(N)=O)C(=O)N[C@@H](Cc1ccccc1)C(=O)N[C@@H](CCC(N)=O)C(=O)N[C@@H](Cc1ccccc1)C(=O)O)[C@@H](C)O` [Peptide 20] (H-LRTGNNFQF-OH): the EC50 at HLA-B*27:05 came to 122 nM.

Take `CC(C)[C@H](NC(=O)[C@H](C)NC(=O)[C@H](CCCNC(=N)N)NC(=O)CN)C(=O)N[C@@H](Cc1ccccc1)C(=O)N[C@@H](CCC(N)=O)C(=O)N[C@@H](C)C(=O)N[C@@H](CCCCN)C(=O)N[C@@H](CCCCN)C(=O)O` [Peptide 5] (H-GRAVFQAKK-OH): a half-maximal response on HLA-B*27:05 (EC50) required 83.9 nM. The EC50 values of the last two molecules are within 1.5-fold of each other.

Turning to “SQAVGRSSF [Peptide 17, predicted allele B*15:01]”, the “Total no. of responders” value in assay [1] (IFN-γ) worked out at 0. In addition, the “T cell response in tested donors / donors with the predicted binding allele (in words)” value in [1] is “did not elicit a response”. In assay [1] (IFN-γ, SI ≥1.4), the “% response in donors with allele(s)” value is 0/2 (0%).

At HLA-B*40:01, `CSCC[C@H](NC(=O)[C@H](CCC(N)=O)NC(=O)[C@H](CO)NC(=O)[C@@H]1CCCN1C(=O)[C@H](Cc1ccccc1)NC(=O)[C@H](Cc1ccc(O)cc1)NC(=O)[C@H](CCC(=O)O)NC(=O)[C@@H](N)CC(C)C)C(=O)N[C@@H](CC(C)C)C(=O)O` [Peptide 19] (H-LEYFPSQML-OH) displayed an EC50 of 0.1 nM.

Regarding `CC[C@H](C)[C@H](NC(=O)[C@@H](N)CC(C)C)C(=O)N[C@@H](CC(=O)O)C(=O)N[C@@H](CCC(N)=O)C(=O)N[C@@H](Cc1ccc(O)cc1)C(=O)N[C@@H](CC(C)C)C(=O)N[C@@H](Cc1ccc(O)cc1)C(=O)N[C@@H](Cc1ccc(O)cc1)C(=O)N[C@@H](CC(C)C)C(=O)O` [Peptide 24] (H-LIDQYLYYL-OH), the 50% effective concentration (EC50) on HLA-A*02:01 was found to be 0.6 nM.

For `CC(C)C[C@H](NC(=O)[C@H](C)NC(=O)[C@H](Cc1c[nH]c2ccccc12)NC(=O)[C@@H](NC(=O)[C@H](CCCNC(=N)N)NC(=O)[C@@H](N)[C@@H](C)O)[C@@H](C)O)C(=O)N1CCC[C@H]1C(=O)N[C@H](C(=O)N[C@@H](Cc1ccc(O)cc1)C(=O)O)[C@@H](C)O` [Peptide 10] (H-TRTWALPTY-OH), the EC50 at HLA-B*27:05 is 120 nM; on HLA-C*07:01, more than 10000 nM.

“QPAKKRLNF [Peptide 7, predicted allele B*07:02]”: the “Total no. of responders” value in [1] (IFN-γ) turned out to be 0. Also, in assay [1], the “T cell response in tested donors / donors with the predicted binding allele (in words)” value is listed as “did not elicit a response”. In addition, the “% response in donors with allele(s)” value in [1] (IFN-γ, SI ≥1.4) was 0/6 (0%).

`CC[C@H](C)[C@H](NC(=O)[C@@H]1CCCN1C(=O)[C@H](CCCNC(=N)N)NC(=O)[C@@H]1CCCN1C(=O)[C@H](CCC(=O)O)NC(=O)[C@H](CO)NC(=O)[C@@H](N)Cc1ccc(O)cc1)C(=O)NCC(=O)N[C@H](C(=O)N[C@@H](CCCNC(=N)N)C(=O)N[C@@H](Cc1ccc(O)cc1)C(=O)O)[C@@H](C)O` [Peptide 41] (H-YSEPRPIGTRY-OH) returned a half-maximal effective concentration (EC50) on HLA-A*01:01 of 16.3 nM.

For the molecule `CSCC[C@H](NC(=O)[C@H](CC(N)=O)NC(=O)[C@H](CO)NC(=O)[C@@H]1CCCN1C(=O)CNC(=O)[C@H](C)NC(=O)[C@@H](NC(=O)[C@@H](N)CO)C(C)C)C(=O)N[C@@H](C)C(=O)N[C@H](C(=O)N[C@@H](CCC(N)=O)C(=O)NCC(=O)N[C@@H](CCCNC(=N)N)C(=O)O)C(C)C` [Peptide 26] (H-SVAGPSNMAVQGR-OH), the “Binding affinity (nM), C*03:03” value at HLA-C*03:03 was “Non-binder”. This molecule also returned a 50% effective concentration (EC50) at HLA-A*68:01 of 1.9 nM.

On HLA-B*35:01, `CC(C)C[C@H](NC(=O)[C@H](Cc1c[nH]cn1)NC(=O)[C@H](CC(N)=O)NC(=O)[C@H](CC(N)=O)NC(=O)[C@H](Cc1ccc(O)cc1)NC(=O)[C@@H](NC(=O)[C@@H]1CCCN1C(=O)[C@@H](N)CC(C)C)[C@@H](C)O)C(=O)N[C@@H](Cc1ccc(O)cc1)C(=O)O` [Peptide 11] (H-LPTYNNHLY-OH) gave an EC50 of 96.7 nM.

In turn, `CC(C)[C@H](NC(=O)[C@H](CC(N)=O)NC(=O)[C@H](CCC(=O)O)NC(=O)[C@H](Cc1ccccc1)NC(=O)[C@H](CCC(=O)O)NC(=O)[C@H](Cc1ccc(O)cc1)NC(=O)[C@H](CO)NC(=O)[C@H](Cc1ccccc1)NC(=O)[C@H](CCC(N)=O)NC(=O)[C@@H](N)Cc1ccccc1)C(=O)O` [Peptide 21] (H-FQFSYEFENV-OH) gave an EC50 on HLA-A*02:01 of 0.6 nM.
